Molecules are shown by their SMILES. ≈ marks a conversion by molar mass, not a printed value. Like-named read-outs stand apart in the source and are kept apart here.

These results are taken from patent US8835644B2, “Broad spectrum benzothiophene-nitrothiazolide and other antimicrobials” (University of Virginia Patent Foundation, priority 2009, dated 2014).

Experiment [1] concerns C. difficile. Description: MIC by agar dilution, C. difficile. The class given is cell-based, Clostridium difficile. The method, then:
A standard broth dilution protocol was used in 96 well microplates containing a standard dilution of the microorganism to be tested in 100 microliters of the appropriate medium. Appropriate medium: E. coli, LB medium; Staphylococcus strains, Trypticase Soy; and for H. pylori and C. jejuni, Brain Heart Infusion. The compounds to be tested were set at 32 μg/ml in 200 microliters in well one and then serially diluted to provide a range from 32 to 0.06. The wells were scored visually at 24 h. The well where there was no growth was recorded as the MIC. […]
(§1) Representative compounds of the invention were tested in a series of assays against a series of organisms as described above. […] The organisms tested include, C. difficile, H. pylori, C. jejuni, MRSA, S. epidermidis, and E. coli. S. epidermidis and E. coli were tested in the plank and biofilm assay. A disk diffusion assay was also used for C. difficile. Direct PFOR enzyme assays were also performed. All analogues and derivatives were not tested on every organism in every type of assay (the “-” in each table means that it was not tested).
On the technique in general: Agar dilution tests growth on a series of plates holding different concentrations.

Experiment [2] has as its system C. difficile. As to the kind of experiment: Disk diffusion (Kirby Bower), C. difficile. The class given is cell-based, Clostridium difficile. The following applies: for Disk Diff (%) C. difficile: Nitazoxanide = 100, Thiophene analogues table; for Disk Diffusion (%) C. difficile: zone of inhibited growth as relative ratio to the zone for NTZ. The essentials: (§2)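 Twofold broth microdilution from 32 μg/ml down to 0.06, in LB for E. coli, Trypticase Soy for S. epidermidis (planktonic) and Brain Heart Infusion for C. jejuni. C. difficile: anaerobic disk diffusion on Wilkins Chalgrin agar, inhibition zone expressed as a ratio to the NTZ zone.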

In another experiment the test system is H. pylori. Description: MIC testing by broth dilution, H. pylori. In kind it is cell-based, Helicobacter pylori. In short, it runs like this: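 Broth dilution MIC determination against H. pylori: a standard inoculum in 100 microliters of Brain Heart Infusion medium was placed in 96 well microplates. Test compounds began at 32 μg/ml in 200 microliters in well one and were serially diluted over a 32 to 0.06 range. After 24 h, plates were scored by eye and the first well without growth was recorded as the MIC.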
In general terms: In broth dilution the organism is exposed to a series of concentrations in liquid medium.

The test system of the next experiment is C. jejuni. Description: MIC testing by broth dilution, C. jejuni. In kind it is cell-based, Campylobacter jejuni. In short, it runs like this: as §2
For another experiment, the system named is MRSA. As to the kind of experiment: MIC testing by broth dilution, MRSA. In kind it is cell-based, Staphylococcus aureus. The essentials:
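Values are broth-dilution MICs, defined as the well showing no growth on visual reading after 24 h; the tested range was 32 to 0.06 μg/ml, in organism-specific media (LB, Trypticase Soy, Brain Heart Infusion). The C. difficile entries come instead from anaerobic Kirby-Bauer disk zones, normalised to NTZ.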

The next experiment has as its system E. coli biofilm. As to the kind of experiment: E. coli biofilm assay (activity tables). The class given is cell-based, Escherichia coli. In short, it runs like this: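 After 24 h static culture at 37 °C in wells containing NTZ, strain 042 (1:100 inoculum) biofilm was quantified by 0.5% crystal violet absorbance at 570 nm. Planktonic growth was taken from turbidity or LB plate counts as cfu/ml; all runs triplicate, reported as mean and SD.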

For a further experiment, the system named is E. coli. As to the kind of experiment: MIC testing by broth dilution, E. coli plank. The class given is cell-based, Escherichia coli. The essentials: as §2
Another experiment concerns S. epidermidis. As to the kind of experiment: MIC testing by broth dilution, S. epidermidis plank. In kind it is cell-based, Staphylococcus epidermidis. In short, it runs like this: as §2
A further experiment has as its system S. epidermidis biofilm. As to the kind of experiment: S. epidermidis biofilm assay (activity tables). The class given is cell-based, Staphylococcus epidermidis. Conditions: for MIC S. epidermidis Biofilm: Thiophene analogues table. The essentials: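 Overnight TSB cultures diluted to OD600 0.01 and grown static with compound (triplicate) at 37° C for 16 h; turbidity recorded for growth. Biofilm: washed wells ethanol-fixed, stained with 0.5% crystal violet, A570 read before and after 95% ethanol extraction; mean ± SD.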

The subject of experiment [3] is PFOR (pyruvate ferredoxin oxidoreductase). Description: Direct PFOR enzyme assay. The class given is biochemical. The method, then: as §1
[4] abbreviates: Thiophene analogues table, read-out: MIC C. difficile.
The mark [5] stands for this setting: Thiophene analogues table, read-out: MIC H. pylori.
Where [6] appears, read: Thiophene analogues table, read-out: MIC C. jejuni.
The mark [7] stands for this setting: Thiophene analogues table, read-out: MIC MRSA.
Where [8] appears, read: biofilm, Thiophene analogues table, read-out: MIC E. coli Biofilm.
[9] abbreviates: planktonic, Thiophene analogues table, read-out: MIC E. coli Plank.
[10] abbreviates: planktonic, Thiophene analogues table, read-out: MIC S. epidermidis Plank.
The mark [11] stands for this setting: Clostridioides difficile, Thiophene analogues table, read-out: MIC C. difficile.
Setting [12] is: Helicobacter pylori, Thiophene analogues table, read-out: MIC H. pylori.
Where [13] appears, read: Campylobacter jejuni, Thiophene analogues table, read-out: MIC C. jejuni.
Setting [14] is: Staphylococcus aureus, MRSA, Thiophene analogues table, read-out: MIC MRSA.
Setting [15] is: Escherichia coli, biofilm, Thiophene analogues table, read-out: MIC E. coli Biofilm.
Setting [16] is: Escherichia coli, planktonic, Thiophene analogues table, read-out: MIC E. coli Plank.

As to `O=C(Nc1ncc([N+](=O)[O-])s1)c1cc2ccccc2s1` [VPC161180], the MIC worked out at 13.1 µM (≈ 4 µg/mL) in the experiment on C. difficile [1] (setting [4]); 2.5 µM (≈ 0.763 µg/mL) with H. pylori (setting [5]); 9.8 µM (≈ 2.99 µg/mL) in the experiment with C. jejuni (setting [6]); 6.6 µM (≈ 2.02 µg/mL) with MRSA (setting [7]); 104.8 µM (≈ 32 µg/mL) in the experiment on E. coli biofilm (setting [8]); 104.8 µM (≈ 32 µg/mL) in the experiment on E. coli (setting [9]). Also, the MIC with S. epidermidis (setting [10]) came out at 13.1 µM (≈ 4 µg/mL). In the experiment on C. difficile [2], the “Disk Diff (%) C. difficile” value is given as 81%. For the same molecule, the “MIC S. epidermidis Biofilm” value against S. epidermidis biofilm came to 19.7 µM (≈ 6.02 µg/mL).

Take `O=C(Nc1ncc([N+](=O)[O-])s1)c1sc2ccccc2c1Cl` [VPC161181]: the MIC in the experiment with C. difficile [1] (setting [11]) turned out to be 11.8 µM (≈ 4.01 µg/mL); in the experiment with H. pylori (setting [12]), 2.2 µM (≈ 0.748 µg/mL); in the experiment with C. jejuni (setting [13]) it was 5.9 µM (≈ 2 µg/mL); with MRSA (setting [14]), 2.9 µM (≈ 0.985 µg/mL); with E. coli biofilm (setting [15]), 94.2 µM (≈ 32 µg/mL); in the experiment with E. coli (setting [16]), 94.2 µM (≈ 32 µg/mL). Also, the MIC in the experiment with S. epidermidis (Staphylococcus epidermidis, planktonic, Thiophene analogues table, read-out: MIC S. epidermidis Plank) was 5.9 µM (≈ 2 µg/mL). Besides, the “Disk Diff (%) C. difficile” value in the experiment on C. difficile [2] was found to be 72%. Also, the “MIC S. epidermidis Biofilm” value against S. epidermidis biofilm amounted to 11.8 µM (≈ 4.01 µg/mL).

Take `O=C(Nc1ncc([N+](=O)[O-])s1)c1cccc(C(F)(F)F)c1` [VPC161183, N-(5-Nitrothiazol-2-yl)-3-(trifluoromethyl)benzamide]: the MIC in the experiment with C. difficile [1] (Clostridioides difficile, read-out: MIC (μM) C. difficile) stood at 12.6 µM (≈ 4 µg/mL); with H. pylori (Helicobacter pylori, 24 h, read-out: MIC (μM) H. pylori), 3.5 µM (≈ 1.11 µg/mL); with C. jejuni (Campylobacter jejuni, 24 h, read-out: MIC (μM) C. jejuni), 4.7 µM (≈ 1.49 µg/mL); with MRSA (Staphylococcus aureus, MRSA, 24 h, read-out: MIC (μM) MRSA) it was 3.2 µM (≈ 1.02 µg/mL); in the experiment with E. coli biofilm (Escherichia coli, read-out: MIC (μM) E. coli Biofilm), 31.5 µM (≈ 9.99 µg/mL); in the experiment on E. coli (Escherichia coli, 24 h, read-out: MIC (μM) E. coli Plank), 37.8 µM (≈ 12 µg/mL). Further, the “Disk Diffusion (%) C. difficile” value with C. difficile [2] is given as 95 ± 2%. Further, in [3], the “PFOR inhibition relative to nitazoxanide (=100)” value turned out to be 87%. In addition, the “MIC (μM) S. epidermidis Biofilm” value in the experiment with S. epidermidis biofilm was 25.2 µM (≈ 7.99 µg/mL).

With `COc1cccc(C(=O)Nc2ncc([N+](=O)[O-])s2)c1` [VPC161193], the MIC is on record as 28.6 µM (≈ 7.99 µg/mL) with C. difficile [1] (agar dilution, anaerobic, Wilkins Chalgrin agar, read-out: MIC (μM) C. difficile); 1.3 µM (≈ 0.363 µg/mL) in the experiment on H. pylori (broth dilution, Brain Heart Infusion, 24 h, read-out: MIC (μM) H. pylori); 7.2 µM (≈ 2.01 µg/mL) with C. jejuni (broth dilution, Brain Heart Infusion, 24 h, read-out: MIC (μM) C. jejuni); 14.3 µM (≈ 3.99 µg/mL) with MRSA (broth dilution, Trypticase Soy, 24 h, read-out: MIC (μM) MRSA); 114.6 µM (≈ 32 µg/mL) with E. coli biofilm (biofilm, read-out: MIC (μM) E. coli Biofilm); 114.6 µM (≈ 32 µg/mL) with E. coli (broth dilution, LB medium, 24 h, read-out: MIC (μM) E. coli Plank). For the same molecule, the MIC in the experiment on S. epidermidis (broth dilution, Trypticase Soy, 24 h, read-out: MIC (μM) S. epidermidis Plank) was 28.6 µM (≈ 7.99 µg/mL). Besides, in the experiment with C. difficile [2], the “Disk Diffusion (%) C. difficile” value turned out to be 73 ± 1%. The “PFOR inhibition relative to nitazoxanide (=100)” value in experiment [3] worked out at 82%. Besides, in the experiment on S. epidermidis biofilm, the “MIC (μM) S. epidermidis Biofilm” value was determined as 57.3 µM (≈ 16 µg/mL).

Regarding `O=C(Nc1ncc([N+](=O)[O-])s1)c1cccs1` [VPC161195, N-(5-Nitrothiazol-2-yl)thiophene-2-carboxamide], the MIC in the experiment with C. difficile [1] (setting [11]) is 31.3 µM (≈ 7.99 µg/mL); in the experiment with H. pylori (setting [12]) it was 2.9 µM (≈ 0.74 µg/mL); in the experiment on C. jejuni (setting [13]) it was 2.9 µM (≈ 0.74 µg/mL); with MRSA (setting [14]), 15.7 µM (≈ 4.01 µg/mL); in the experiment on E. coli biofilm (setting [15]), 125 µM (≈ 32 µg/mL); in the experiment on E. coli (setting [16]), 125 µM (≈ 32 µg/mL). The “Disk Diff (%) C. difficile” value in the experiment with C. difficile [2] came to 97%. For the same molecule, the “PFOR inhibition relative to nitazoxanide (=100)” value in experiment [3] (Thiophene analogues table) turned out to be 88%. In the experiment on S. epidermidis biofilm, the “MIC S. epidermidis Biofilm” value stood at 62.7 µM (≈ 16 µg/mL).

`O=C(Nc1ncc([N+](=O)[O-])s1)c1cc(Cl)sc1Cl` [VPC161199]: the MIC with C. difficile [1] (setting [4]) was 12.3 µM (≈ 3.99 µg/mL); with H. pylori (setting [5]), 1.5 µM (≈ 0.486 µg/mL); in the experiment on C. jejuni (setting [6]) it was 2.3 µM (≈ 0.746 µg/mL); in the experiment on MRSA (setting [7]), 6.2 µM (≈ 2.01 µg/mL); in the experiment on E. coli biofilm (setting [8]) it was 24.7 µM (≈ 8.01 µg/mL); with E. coli (setting [9]), 98.7 µM (≈ 32 µg/mL). Also, in the experiment on S. epidermidis (setting [10]), the MIC worked out at 12.3 µM (≈ 3.99 µg/mL). In addition, the “Disk Diff (%) C. difficile” value in the experiment with C. difficile [2] amounted to 89%. Moreover, the “PFOR inhibition relative to nitazoxanide (=100)” value in [3] (Thiophene analogues table) is 48%. Moreover, in the experiment on S. epidermidis biofilm, the “MIC S. epidermidis Biofilm” value was determined as 24.7 µM (≈ 8.01 µg/mL).
